One assay deals with T1, human H1 receptor (Homo sapiens, UniProt P35367).
T1 construct: expressed in transfected cells
The experiment in a line: Histamine H1 functional antagonist assay (FLIPR): determination of functional pKi values. In kind it is cell-based. The conditions noted are these: CHO cells expressing human H1, histamine at EC80; read-out: average pKi (pKb) at H1 (converted). From the text: H1 receptor cell line generation and FLIPR assay protocol
1. Generation of histamine H1 cell line
The human H1 receptor is cloned using known procedures described in the literature [Biochem. Biophys. Res. Commun., 201(2):894 (1994)]. Chinese hamster ovary (CHO) cells stably expressing the human H1 receptor are generated according to known procedures described in the literature [Br. J. Pharmacol., 117(6):1071 (1996)].
Histamine H1 functional antagonist assay: Determination of functional pKi values […]
10 μl of test compound, diluted to the required concentration in Tyrodes buffer+probenecid (or 10 μl Tyrodes buffer+probenecid as a control) is added to each well and the plate is incubated for 30 min at 37° C., 5% CO2. The plates are then placed into a FLIPR™ (Molecular Devices, UK) to monitor cell fluorescence (λex=488 nm, αEM=540 nm) in the manner described in Sullivan et al., (In: Lambert DG (ed.), Calcium Signaling Protocols, New Jersey: Humana Press, 1999, 125-136) before and after the addition of 10 μl histamine at a concentration that results in the final assay concentration of histamine being EC80.
Functional antagonism is indicated by a suppression of histamine induced increase in fluorescence, as measured by the FLIPR™ system (Molecular Devices). By means of concentration effect curves, functional affinities are determined using standard pharmacological mathematical analysis.

The test system of assay [1] is histamine-induced nasal congestion. The experiment in a line: Intranasal challenge method: whole body plethysmography, histamine-induced nasal congestion. Type of assay: in vivo, guinea pig. The conditions noted are these: 24 hours after dosing, compared to azelastine; intranasal 1 mg/ml (FIG. 3, Example 24D). As for the experimental part:
FIG. 3: depicts the duration of 4-[(4-chlorophenyl)methyl]-2-({(2R)-1-[4-(4-{[3-(hexahydro-1H-azepin-1-yl)propyl]oxy}phenyl)butyl]-2-pyrrolidinyl}methyl)-1(2H)-phthalazinone, dihydrochloride salt (Example 24D) and azelastine in a conscious Guinea-Pig model of histamine-induced nasal congestion. Animals were exposed to histamine at the time indicated after an intranasal dose of 1 mg/ml of compound. Mean ±s.e. mean (n=6-10 per group).
Intranasal Challenge Method: Whole Body Plethysmography
Female Dunkin-Hartley guinea pigs 150-250 g are sensitised twice daily for 5 days (week 1) with ovalbumin (OVA) and aluminium hydroxide (AI(OH)3 or Alum) in physiological saline, 25 μl/nostril. Solution is made up at 20 μg/ml OVA, 180 mg/ml Alum. During weeks 2 and 3, animals receive 25 μl/nostril of OVA (5 mg/ml) once daily. […]
Pretreatment with test compound is performed at various times prior to histamine challenge. Efficacy dose-response curves are determined 1 h after dosing whereas duration of action is studied up to 7 days post dose. […]
After the stipulated pre-dose time has been reached, guinea pigs are re-anaesthetised with isoflurane and dosed with either 15 mM histamine or phosphate-buffered saline (PBS), (25 μl per nostril). […] Data are analysed using ANOVA with post-hoc Fishers LSD test (general linear models, Statistica®) and finally Hochberg adjustment. […]

Here are results for one molecule from patent US20080039444A1, “COMPOUNDS” (GLAXO GROUP LIMITED, priority 2006, published 2008).

T1 sequence (P35367 whole entry): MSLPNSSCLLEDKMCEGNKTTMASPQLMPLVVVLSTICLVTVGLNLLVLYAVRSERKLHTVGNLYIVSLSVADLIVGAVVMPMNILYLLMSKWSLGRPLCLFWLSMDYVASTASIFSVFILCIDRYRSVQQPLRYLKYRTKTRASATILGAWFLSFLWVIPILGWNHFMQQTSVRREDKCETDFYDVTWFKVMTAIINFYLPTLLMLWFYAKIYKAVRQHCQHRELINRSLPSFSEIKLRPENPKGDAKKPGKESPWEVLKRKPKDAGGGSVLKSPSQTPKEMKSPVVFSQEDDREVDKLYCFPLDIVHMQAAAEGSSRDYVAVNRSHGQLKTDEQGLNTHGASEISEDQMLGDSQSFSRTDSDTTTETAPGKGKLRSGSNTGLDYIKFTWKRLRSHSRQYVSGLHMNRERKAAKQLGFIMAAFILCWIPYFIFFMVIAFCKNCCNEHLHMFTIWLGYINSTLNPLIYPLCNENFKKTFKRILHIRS

As for `O=c1c2ccccc2c(Cc2ccc(Cl)cc2)nn1C[C@H]1CCCN1CCCCc1ccc(OCCCN2CCCCCC2)cc1` [Example 24, 4-[(4-Chlorophenyl)methyl]-2-({(2R)-1-[4-(4-{[3-(hexahydro-1H-azepin-1-yl)propyl]oxy}phenyl)butyl]-2-pyrrolidinyl}methyl)-1(2H)-phthalazinone free base], at human H1 receptor, the Ki is around 15.8 nM. Moreover, the “inhibition of nasal congestion in the Guinea Pig whole body plethysmography model” value in assay [1] is “statistically significant inhibition of nasal congestion”.
